The values below come from ChEMBL document CHEMBL2074213, “In vitro activities of native and designed peptide antibiotics against drug sensitive and resistant tumor cell lines” (Peptides, 2003).

Bridge positions count the residues as written; N and C are the ends. Peptide text beside a SMILES is read from it.

The series has as its target ATP-dependent translocase ABCB1 (Homo sapiens, UniProt P08183). Description: TP_TRANSPORTER: drug resistance in MCF-7/Dox cells. The class given is functional, cell-based.

ATP-dependent translocase ABCB1, sequence (P08183 whole entry): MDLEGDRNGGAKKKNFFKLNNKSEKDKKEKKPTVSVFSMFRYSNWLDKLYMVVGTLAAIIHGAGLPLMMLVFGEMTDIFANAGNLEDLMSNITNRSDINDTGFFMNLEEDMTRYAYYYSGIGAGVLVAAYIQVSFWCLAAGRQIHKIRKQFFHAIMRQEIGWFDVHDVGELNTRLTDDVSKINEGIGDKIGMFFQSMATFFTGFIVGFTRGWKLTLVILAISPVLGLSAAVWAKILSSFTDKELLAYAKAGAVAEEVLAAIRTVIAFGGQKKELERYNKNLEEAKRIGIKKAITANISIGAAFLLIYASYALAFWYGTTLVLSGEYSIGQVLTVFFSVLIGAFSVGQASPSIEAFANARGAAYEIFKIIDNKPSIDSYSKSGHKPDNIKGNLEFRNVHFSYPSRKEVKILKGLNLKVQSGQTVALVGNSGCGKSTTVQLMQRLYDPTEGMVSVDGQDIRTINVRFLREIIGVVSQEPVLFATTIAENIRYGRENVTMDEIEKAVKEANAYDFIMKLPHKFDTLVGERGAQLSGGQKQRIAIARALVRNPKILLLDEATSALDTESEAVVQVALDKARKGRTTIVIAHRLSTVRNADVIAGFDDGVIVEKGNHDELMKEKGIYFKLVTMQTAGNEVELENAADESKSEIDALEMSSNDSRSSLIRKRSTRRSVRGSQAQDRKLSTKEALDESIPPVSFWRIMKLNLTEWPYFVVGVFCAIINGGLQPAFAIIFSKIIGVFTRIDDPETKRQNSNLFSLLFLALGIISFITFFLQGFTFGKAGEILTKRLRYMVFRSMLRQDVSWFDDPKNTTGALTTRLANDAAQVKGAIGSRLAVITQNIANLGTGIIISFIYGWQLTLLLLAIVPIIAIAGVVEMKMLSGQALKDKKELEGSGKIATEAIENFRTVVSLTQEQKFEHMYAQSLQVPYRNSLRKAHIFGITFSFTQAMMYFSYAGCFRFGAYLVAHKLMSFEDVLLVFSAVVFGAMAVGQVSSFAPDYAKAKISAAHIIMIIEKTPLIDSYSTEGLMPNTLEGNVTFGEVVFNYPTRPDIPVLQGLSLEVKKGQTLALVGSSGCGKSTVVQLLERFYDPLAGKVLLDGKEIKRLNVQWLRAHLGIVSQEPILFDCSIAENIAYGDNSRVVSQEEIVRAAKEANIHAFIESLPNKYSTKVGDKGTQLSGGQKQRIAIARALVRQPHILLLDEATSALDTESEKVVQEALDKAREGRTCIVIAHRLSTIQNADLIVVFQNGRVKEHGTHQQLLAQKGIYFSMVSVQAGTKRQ

For `COc1cccc2c1C(=O)c1c(O)c3c(c(O)c1C2=O)C[C@@](O)(C(=O)CO)C[C@@H]3O[C@H]1C[C@H](N)[C@H](O)[C@H](C)O1` [DOXORUBICIN], the Activity entry is “substrate [+]”.
Then `CC[C@H](C)[C@@H]1NC(=O)[C@H](CCCCN)NC(=O)[C@@H](NC(=O)[C@@H](NC(=O)[C@@H](NC(=O)[C@@H](NC(=O)[C@@H]2CCCN2C(=O)[C@H](CC(C)C)NC(=O)[C@H](Cc2ccccc2)NC(=O)[C@H](CC(N)=O)NC(=O)[C@H](C)NC(=O)[C@H](C)NC(=O)[C@H](CC(C)C)NC(=O)CNC(=O)[C@H](C)NC(=O)[C@H](CC(C)C)NC(=O)[C@H](CC(C)C)NC(=O)[C@@H]2CCCN2C(=O)[C@H](CC(C)C)NC(=O)[C@@H](N)Cc2ccccc2)[C@@H](C)O)[C@@H](C)CC)[C@@H](C)CC)CSSC[C@@H](C(=O)O)NC(=O)[C@H](CCCCN)NC(=O)[C@H](Cc2ccc(O)cc2)NC(=O)[C@H](CO)NC1=O` [GAEGURIN 6] (H-FLPLLAGLAANFLPTIICKISYKC-OH; disulfide 18-24), with “is not a substrate [-]”; and `CC(=O)O[C@H]1C(=O)[C@@]2(C)[C@H]([C@H](OC(=O)c3ccccc3)[C@]3(O)C[C@H](OC(=O)[C@H](O)[C@@H](NC(=O)c4ccccc4)c4ccccc4)C(C)=C1C3(C)C)[C@]1(OC(C)=O)CO[C@@H]1C[C@@H]2O` [PACLITAXEL], with “substrate [+]”.
Regarding H-FLGALFKALCKLL-OH, the Activity entry was “is not a substrate [-]”.
Then H-FLGALFKALSKLL-OH, with “is not a substrate [-]”.
